Residues, ends and D or L forms follow the SMILES beside them.
Assays:
[1] = system: right cerebral artery ischemia/reperfusion model in rats; experiment: Neurologic deficit score in rat 1.5-hour ischemia/reperfusion model; format: in vivo, Sprague-Dawley (SD) rats; conditions: 3.6 mg/kg i.p. once a day, vs model group without compound
Experimental: (§1) Sprague-Dawley (SD) rats, male, weighing 280-320 g, clean, feeding, conditions: room temperature of 20-25° C., humidity of 30-60%, well ventilated, ad libitum diet; the animals were acclimatized in the feeding environment for three days prior to the experiment.
(§2) The rats were anesthetized with 4% chloral hydrate (350 mg/kg, ip.) and then were fixed in a supine position. A midline ventral neck incision was made, the right common carotid artery was separated and snared with two sutures for further use. Then, the internal carotid artery and external carotid artery were separated, and the external carotid artery was ligatured. The separated common carotid artery was ligatured at its proximal end with a thread, and the blood flow of the same was blocked at its distal end with a bulldog clamp. A small opening was cut therebetween and a nylon suture (4-0) which is heated at one end into a bead-like shape (having a diameter of <0.3 mm) was inserted into the small opening. […]
Neurologic deficit scores were assessed for the above experimental animals according to the following procedure before the beginning of experiment and 24 hours, 1 day, 3 days, 7 days, 14 days, 28 days, 56 days, and 112 days after the beginning of experiment; Score rules: see Zea Longer score and NSS score, full score of 10; […]

[2] = Body weight of rats in 1.5-hour ischemia/reperfusion model; format: in vivo, Sprague-Dawley (SD) rats; conditions: 3.6 mg/kg i.p. once a day
Experimental: as §1
as §2, with “opening. The bulldog clamp was removed, and the nylon suture was gently advanced to the origin of the anterior cerebral artery (18-20 mm), thereby causing arterial ischemia in brain by blocking the blood supply of the cerebral artery. The skin was sutured and was sterilized with tincture of iodine.” for “opening.”

For `CC(C)CC(NC(=O)C(CCC(N)=O)NC(=O)C(NC(=O)C(CO)NC(=O)C(Cc1c[nH]cn1)NC(=O)C(N)C(C)C)C(C)C)C(=O)NC(Cc1ccc(O)cc1)C(=O)O` (stereo not shown) [compound of formula (III)] (H-VHSVQLY-OH; configuration not given here), the “neuroethology score (neurologic deficit score)” value ([1]; I1.5R+1 week+dosing for 4 weeks, statistically significant in 2nd, 3rd, 4th, 5th and 7th week after operation) was “gradually declined neuroethology score”, the neurological scores ([1]; I1.5R+2 weeks+dosing for 4 weeks, statistically significant at fifth week after operation) was “declined from the beginning of the administration” and the weight ([2]; I1.5R+1 week+dosing for 4 weeks, vs model group without compound) was “gradually increased weight”. The weight ([2]; I1.5R+2 weeks+dosing for 4 weeks, vs model group, weight data said not demonstrative (groups differed before dosing)) was “gradually increased weight”.

Reference: patent publication US10647745B2, “Compound for treating sequelae of ischemic cerebral stroke” (priority 2015, dated 2020)
